These results are taken from patent US12343319B2, “Compositions and methods for treatment of diseases and disorders” (Atai Therapeutics Inc., priority 2023, dated 2025).

For series [1], the system named is Male WKY rats. As to the kind of experiment: Low-dose sleep, locomotor, body temperature and qEEG study in WKY rats. It counts as in vivo, rat. To be noted: 1, 3 and 10 mg/kg IP. As for the experimental part:
The aim of the current study was to identify a minimal effective dose of compound by testing a series of lower doses (1, 3 and 10 mg/kg). The study was carried out similarly to Examples 7 and 9 with differences noted below. Male WKY rats (n=8, 255-296 g at the start of dosing) were housed in groups of 2-3 animals per cage with standard housing conditions.

For series [2], the system named is Male WKY rats. Description: Confirmatory 30 mg/kg sleep, locomotor, body temperature and qEEG study in WKY rats. It counts as in vivo, rat. The note with it: 30 mg/kg IP. As for the experimental part:
The aim of the current study was to confirm the effects of compound 2-2 (30 mg/kg) on sleep-wake behavior and EEG brain oscillatory power in an independent cohort of male Wistar Kyoto rats. The study was carried out similarly to Examples 7 and 9 with differences noted below. Male WKY rats (n=8, 323-352 g at the start of dosing) were housed in groups of 2-3 animals per cage with standard housing conditions.

The subject of a further series is male Sprague Dawley rats. As to the kind of experiment: Psilocybin operant drug discrimination in rats. It counts as in vivo, rat. As for the experimental part: Thirty-six (36) male Sprague Dawley rats served as subjects. Rats had been trained to lever press for food in standard operant conditioning chambers controlled by Med-PC software (Med. Associates Inc., St. Albans, VT) followed by training to associate the right lever to a psilocybin stimulus (0.5 mg/kg, SC), and the left lever to a neutral stimulus (saline, SC). The sequence of psilocybin and saline injections were administered under a randomized design where neither condition was administered for more than 3 consecutive days. […] The rats continued to receive a daily food ration (˜18 g at day end) with ad libitum access to water in their home cages.
Test sessions continued until 50 pellets had been obtained or 30 min had elapsed. During these sessions, response rate was also measured. Three types of tests were conducted: • 1. Dose-response profile for compound 2-2 to generalize to the psilocybin cue. On test days, rats received a single compound 2-2 dose (1, 3, or 10 mg/kg, IP) 10 min prior to test. The distribution of vehicle vs. drug-paired lever presses was recorded as well as the rate of lever response. • 2. Effect of the 5-HT subtype selective antagonists, M100907 (5-HT2A receptor selective; Kehne et al, 1996) and SB242084 (5-HT2C receptor selective, Kennett et al, 1997) against the generalization of compound 2-2. On test days, the rats received a single dose (0.5 mg/kg IP) of either antagonist 30 min before compound 2-2 (10 mg/kg, IP), which was administered 10 min prior to testing. The distribution of vehicle vs. drug-paired lever presses was recorded as well as the rate of lever response. • 3. Time-course profile for compound 2-2 (10 mg/kg IP) to generalize to the psilocybin cue. On test days, the rats received a single compound 2-2 dose (10 mg/kg, IP) at various pretreatment times (i.e., 10 min, 30 min, 1 h, 2 h, 4 h, 8 h) prior to test. The distribution of vehicle vs. drug-paired lever presses was recorded as well as the rate of lever response.
Drug testing was conducted on a Tuesday and Friday with the animals run on either vehicle or training drug (psilocybin 0.5 mg/kg, SC) on intervening weekdays. Group sizes varied among doses and pretreatment times and tended to be higher under situations where the choice response was more variable. This adjustment was made in an attempt to get as reliable a measure of drug vs. vehicle discrimination as possible at that specific dose or pretreatment time.

A further series concerns Male Sprague-Dawley rats. As to the kind of experiment: Rat forced swim test, immobility frequency. It counts as in vivo. To be noted: 3 and 30 mg/kg, i.p. at 23.5, 16 and 0.5 hours prior; 5-minute swim test. As for the experimental part:
Male Sprague-Dawley rats were placed individually in clear acrylic swim chambers (40 cm height×20.3 cm diameter) filled to 16 cm for a 15-minute pre-swim session on day 1 and filled to 30 cm for a 5-minute swim test session 24 hours later. Rats (n=10 per treatment group) were administered compound 2-1 (3, 10, 30 mg/kg, i.p., 1 mL/kg, based on weight of the free base) or vehicle (40% (w/v) 2-HPBCD in water, i.p.) at 23.5, 16 and 0.5 hours prior to the swim test. The rapid-acting antidepressant, ketamine (10 mg/kg, i.p.), was included in the study as a positive control condition and injected once 24 hours prior to the swim test.

Take `COc1ccc(OC)c(CCNCc2cc(C)cc(F)c2)c1` [Compound 2-2, 2-(2,5-dimethoxyphenyl)-N-(3-fluoro-5-methylbenzyl)ethan-1-amine]: the body temperature result with Male WKY rats [1] is listed as “did not affect”; with Male WKY rats [2] it was “transiently reduced”. The locomotion result with Male WKY rats [1] and with Male WKY rats [2] was “did not affect” each time. In the series on Male WKY rats [2], the NREM sleep latency result was “no significant effect”. Besides, the “generalization to the psilocybin cue” value in the series on male Sprague Dawley rats (10 mg/kg IP after M100907 0.5 mg/kg IP (30 min before)) was 2+1%; in the series on male Sprague Dawley rats (10 mg/kg IP after SB242084 0.5 mg/kg IP (30 min before)) it was 71+14%; in the series with male Sprague Dawley rats (10 mg/kg IP, 10 min prior to test (Veh pretreatment)) it was 91+8%; with male Sprague Dawley rats (10 mg/kg IP, pretreatment time 4 h) it was ~35%; in the series on male Sprague Dawley rats (10 mg/kg IP, pretreatment times of 10 and 30 min), ~80%. For the same compound, the response rate result with male Sprague Dawley rats (10 mg/kg IP following antagonist pretreatment) is given as “no significant effect”; in the series on male Sprague Dawley rats (10 mg/kg IP, across pretreatment times 10 min-8 h) it was “minor effect”; in the series on male Sprague Dawley rats (dose range 1-10 mg/kg IP), “minor effects”. Moreover, in the series on male Sprague Dawley rats (10 mg/kg IP, only at 10 min post dose), the rate of responding result is recorded as “modestly suppressed”.
In the case of `COc1ccc(OC)c(CCNCc2cc(C)cc(Cl)c2)c1` [Compound 2-1, N-(3-chloro-5-methylbenzyl)-2-(2,5-dimethoxyphenyl)ethan-1-amine], the “frequency of immobility compared to vehicle” value with Male Sprague-Dawley rats was “significantly decreased”.
